Like-named read-outs stand apart in the source and are kept apart here.
Legend:
Format in all cases: cell-based
CFTR-S549N = molecular target: T1, CFTR-S549N (Homo sapiens, UniProt P13569, S549N); experiment: YFP-halide influx assay for the CFTR-S549N
T1 construct: expressed in transfected cells
Text: (§1) The YFP halide influx assay measures the functionality of the cystic fibrosis Transmembrane Conductance regulator (CFTR) channels. The assay is used to evaluate the capacity of compounds to increase the channel opening of existing mutant CFTR channels in the membrane. It makes use of the observation that the yellow fluorescent protein (YFP) variant YFP H148Q, I152L, […] has its fluorescence substantially quenched by halide ions like Cl^− and I^−. (Galietta, Haggie, & Verkman, 2001)
(§2) For this purpose, HEK293-cells are seeded in 96 well plates. During seeding, the cells are reverse-transfected with plasmid vectors that direct the expression of the CFTR G551D mutant and of the YFP reporter. Cells are incubated at 37° C., 5% CO2 for 24 hours so as to allow for sufficient expression of the CFTR protein.
(§3) The I^−-induced quenching of fluorescence is recorded immediately after injection of I^− for 7 seconds. The capacity of a compound to increase the channel opening is directly correlated with the decrease in fluorescence, and is expressed as (1-(fluorescence after 7 seconds (F)/fluorescence before injection (F0))) and an EC50 can be derived from a (1-F/F0) vs compound concentration plot.
(§4) Similar YHA assays were developed for other channel gating defective or channel conductance defective CFTR mutants to determine effect of compound on channel activity. Examples of mutants are G178R, G1349D, S549N, R117H, R334W. This assay is also used for additional class I CFTR mutants, including G542X, W1282X; class II mutants including N1303K, and for class III mutants including S1251N.

CFTR-R117H = molecular target: T2, CFTR-R117H (Homo sapiens, UniProt P13569, R117H); experiment: YFP-halide influx assay for the CFTR-R117H
T2 construct: expressed in transfected cells
Text: as §1, §2, §3, §4

CFTR-G1349D = molecular target: T3, CFTR-G1349D (Homo sapiens, UniProt P13569, G1349D); experiment: YFP-halide influx assay for the CFTR-G1349D
T3 construct: expressed in transfected cells
Text: as §1, §2, §3, §4

CFTR-G178R = molecular target: T4, CFTR-G178R (Homo sapiens, UniProt P13569, G178R); experiment: YFP-halide influx assay for the CFTR-G178R
T4 construct: expressed in transfected cells
Text: as §1, §2, §3, §4

CFTR G551D mutant = molecular target: T5, CFTR G551D mutant (Homo sapiens, UniProt P13569, G551D); experiment: YFP-halide influx assay for the CFTR-G551D mutation; conditions: HEK293 cells, forskolin 10.67 μM
T5 construct: expressed in transfected cells; host or cells: HEK293 (reverse transfection with plasmid)
Outline: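 Channel opening potentiation measured as 1−F/F0, where F is YFP fluorescence 7 s after iodide injection and F0 before; EC50 taken from concentration plot. Cells: HEK293 transiently expressing CFTR G551D plus halide-sensitive YFP (H148Q, I152L, F47L), 24 h at 37 °C, 5% CO2.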

CFTR ΔF508 mutant = molecular target: T6, CFTR ΔF508 mutant (Homo sapiens, UniProt P13569, DEL508-508); experiment: YFP-halide influx assay for the CFTR-ΔF508 mutation (384 well, FDSS/μCell); conditions: CFBE41o- cells, CFTR-ΔF508, 1×D-PBS, fluorescence after 36 seconds
T6 construct: expressed in transfected cells; host or cells: CFBE41o- (adenoviral transduction)
Outline: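 Potentiator read-out as 1−F/F0, F taken 36 s after iodide addition, EC50 fitted against compound concentration. Cells: CFBE41o- expressing ΔF508 CFTR plus halide-sensitive YFP via adenovirus, rescued by 27 °C for 24 h or 24 h modulator at 37 °C.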

T4 sequence (P13569 whole entry G178R): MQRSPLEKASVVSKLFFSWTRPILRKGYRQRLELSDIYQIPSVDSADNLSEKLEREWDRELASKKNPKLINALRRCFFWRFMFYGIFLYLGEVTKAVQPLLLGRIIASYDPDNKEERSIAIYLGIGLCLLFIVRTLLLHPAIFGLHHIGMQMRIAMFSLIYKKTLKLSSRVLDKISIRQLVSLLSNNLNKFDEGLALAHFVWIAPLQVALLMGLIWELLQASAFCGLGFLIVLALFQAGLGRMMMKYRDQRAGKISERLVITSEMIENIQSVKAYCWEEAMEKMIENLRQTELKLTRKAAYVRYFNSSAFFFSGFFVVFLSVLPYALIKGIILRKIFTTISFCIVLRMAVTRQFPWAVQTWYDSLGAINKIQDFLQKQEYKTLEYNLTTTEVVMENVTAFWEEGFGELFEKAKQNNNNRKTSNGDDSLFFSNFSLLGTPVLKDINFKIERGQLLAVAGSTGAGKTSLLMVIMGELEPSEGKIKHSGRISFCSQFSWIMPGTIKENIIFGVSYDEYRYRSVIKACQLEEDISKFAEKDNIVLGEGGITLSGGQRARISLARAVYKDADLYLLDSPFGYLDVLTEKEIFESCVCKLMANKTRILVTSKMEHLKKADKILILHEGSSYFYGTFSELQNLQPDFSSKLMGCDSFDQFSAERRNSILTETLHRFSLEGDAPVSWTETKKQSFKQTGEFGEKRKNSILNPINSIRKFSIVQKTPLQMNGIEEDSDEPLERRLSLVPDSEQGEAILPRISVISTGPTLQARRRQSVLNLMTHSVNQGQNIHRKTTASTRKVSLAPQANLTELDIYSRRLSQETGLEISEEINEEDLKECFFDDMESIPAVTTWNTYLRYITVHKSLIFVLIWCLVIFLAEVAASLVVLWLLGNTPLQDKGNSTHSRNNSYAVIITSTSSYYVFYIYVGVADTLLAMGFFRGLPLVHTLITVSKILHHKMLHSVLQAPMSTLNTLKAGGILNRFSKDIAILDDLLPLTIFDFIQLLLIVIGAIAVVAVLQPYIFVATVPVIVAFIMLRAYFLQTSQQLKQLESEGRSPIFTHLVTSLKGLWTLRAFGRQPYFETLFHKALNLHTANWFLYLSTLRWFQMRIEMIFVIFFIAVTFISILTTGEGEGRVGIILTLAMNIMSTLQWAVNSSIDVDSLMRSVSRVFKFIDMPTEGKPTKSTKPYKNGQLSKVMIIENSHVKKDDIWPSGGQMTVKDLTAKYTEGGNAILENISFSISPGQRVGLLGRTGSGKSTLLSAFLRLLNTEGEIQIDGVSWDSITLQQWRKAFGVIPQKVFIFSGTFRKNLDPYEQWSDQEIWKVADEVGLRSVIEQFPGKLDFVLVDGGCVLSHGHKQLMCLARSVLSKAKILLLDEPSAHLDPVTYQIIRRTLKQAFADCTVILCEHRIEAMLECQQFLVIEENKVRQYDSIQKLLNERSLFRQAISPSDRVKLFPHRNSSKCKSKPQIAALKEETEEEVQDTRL
T5 sequence (P13569 whole entry G551D): as the sequence (P13569 whole entry G178R) above, with R178G, G551D counted along it
T2 sequence (P13569 whole entry R117H): as the sequence (P13569 whole entry G178R) above, with R117H, R178G counted along it
T6 sequence (P13569 with tags, fused parts or gaps DEL508-508): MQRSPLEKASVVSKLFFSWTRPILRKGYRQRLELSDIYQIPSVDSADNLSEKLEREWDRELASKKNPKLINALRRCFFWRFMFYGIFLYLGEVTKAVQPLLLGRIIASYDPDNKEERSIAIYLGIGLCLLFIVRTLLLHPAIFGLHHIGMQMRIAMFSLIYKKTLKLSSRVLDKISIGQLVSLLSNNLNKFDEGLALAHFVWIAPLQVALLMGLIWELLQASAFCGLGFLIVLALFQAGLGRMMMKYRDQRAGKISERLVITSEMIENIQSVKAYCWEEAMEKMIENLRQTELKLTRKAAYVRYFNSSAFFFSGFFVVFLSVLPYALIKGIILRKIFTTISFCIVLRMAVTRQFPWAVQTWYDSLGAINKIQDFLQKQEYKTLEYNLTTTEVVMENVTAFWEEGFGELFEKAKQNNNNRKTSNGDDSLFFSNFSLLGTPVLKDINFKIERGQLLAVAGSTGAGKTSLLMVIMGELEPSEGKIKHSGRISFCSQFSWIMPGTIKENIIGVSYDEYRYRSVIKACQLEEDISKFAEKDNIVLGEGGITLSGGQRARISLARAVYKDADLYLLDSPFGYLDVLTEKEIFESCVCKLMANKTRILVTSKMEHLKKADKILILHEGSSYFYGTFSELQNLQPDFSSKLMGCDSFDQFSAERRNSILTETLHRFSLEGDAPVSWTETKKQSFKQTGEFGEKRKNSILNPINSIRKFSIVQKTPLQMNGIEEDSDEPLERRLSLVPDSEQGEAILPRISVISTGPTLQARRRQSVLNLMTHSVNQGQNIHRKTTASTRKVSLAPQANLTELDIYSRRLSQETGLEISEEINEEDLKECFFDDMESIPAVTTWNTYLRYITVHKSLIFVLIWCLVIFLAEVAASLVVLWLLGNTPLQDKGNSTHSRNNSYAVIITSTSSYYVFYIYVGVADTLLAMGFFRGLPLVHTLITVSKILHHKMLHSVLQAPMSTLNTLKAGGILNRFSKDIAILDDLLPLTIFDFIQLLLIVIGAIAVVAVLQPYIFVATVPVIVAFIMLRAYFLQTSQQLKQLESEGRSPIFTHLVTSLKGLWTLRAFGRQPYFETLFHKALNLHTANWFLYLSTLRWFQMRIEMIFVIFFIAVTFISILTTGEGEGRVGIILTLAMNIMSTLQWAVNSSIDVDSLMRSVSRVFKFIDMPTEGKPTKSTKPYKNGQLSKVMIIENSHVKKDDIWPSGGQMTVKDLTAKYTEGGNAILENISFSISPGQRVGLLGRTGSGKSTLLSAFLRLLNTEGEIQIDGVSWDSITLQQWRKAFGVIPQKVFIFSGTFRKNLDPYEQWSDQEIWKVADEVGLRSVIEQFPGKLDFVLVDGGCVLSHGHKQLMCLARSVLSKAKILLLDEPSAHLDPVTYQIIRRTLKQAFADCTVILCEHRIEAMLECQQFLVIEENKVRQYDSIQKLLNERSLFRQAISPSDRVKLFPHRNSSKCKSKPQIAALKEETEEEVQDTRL
T3 sequence (P13569 whole entry G1349D): as the sequence (P13569 whole entry G178R) above, with R178G, G1349D counted along it
T1 sequence (P13569 whole entry S549N): as the sequence (P13569 whole entry G178R) above, with R178G, S549N counted along it

SMILES	EC50 (CFTR-S549N) [nM]	EC50 (CFTR-R117H) [nM]	EC50 (CFTR-G1349D) [nM]	EC50 (CFTR-G178R) [nM]	EC50 (CFTR G551D mutant) [nM]	EC50 (CFTR ΔF508 mutant) [nM]	EC50 (CFTR-G1349D; class symbol) [nM]	EC50 (CFTR G551D mutant; class symbol) [nM]
CC(C)(O)C(=O)Nc1sc(S(=O)(=O)c2ccc(C(F)(F)F)cn2)cc1C(N)=O [Compound 363, 2-[(2-hydroxy-2-methyl-propanoyl)amino]-5-[[5-(trifluoromethyl)-2-pyridyl]sulfonyl]thiophene-3-carboxamide]	221	90.6	320	69	491	28.5		
CC(O)C(=O)Nc1sc(S(=O)(=O)c2ccc(C(F)(F)F)cc2F)cc1C(N)=O (centres unmarked) [Compound 368, 5-[2-fluoro-4-(trifluoromethyl)phenyl]sulfonyl-2-(2-hydroxypropanoylamino) thiophene-3-carboxamide]	55.5	33.7	100	32.7	321	17.3		
CC(CO)C(=O)Nc1sc(S(=O)(=O)c2ccc(C(F)(F)F)cc2)cc1C(N)=O (centres unmarked) [Compound 369, 2-[(3-hydroxy-2-methyl-propanoyl)amino]-5-[4-(trifluoromethyl)phenyl] sulfonyl-thiophene-3-carboxamide]	445	142	195	74.6	691	11.6		
COc1ccc(OC(F)(F)F)c(S(=O)(=O)c2cc(C(N)=O)c(NC(=O)C(C)(C)O)s2)c1 [Compound 373, 2-[(2-hydroxy-2-methyl-propanoyl)amino]-5-[5-methoxy-2-(trifluoromethoxy)phenyl]sulfonyl-thiophene-3-carboxamide]	70.5	46.1	31.9	19.7	100	13.2		
CC(C)(O)C(=O)Nc1sc(S(=O)(=O)c2ccc(OC(F)(F)F)cn2)cc1C(N)=O [Compound 374, 2-[(2-hydroxy-2-methyl-propanoyl)amino]-5-[[5-(trifluoromethoxy)-2-pyridyl]sulfonyl] thiophene-3-carboxamide]	1830	365	807	610	1330	58.3		
CC(C)(O)C(=O)Nc1sc(S(=O)(=O)c2ccc(OC(F)(F)F)cc2F)cc1C(N)=O [Compound 375, 5-[2-fluoro-4-(trifluoromethoxy)phenyl] sulfonyl-2-[(2-hydroxy-2-methyl-propanoyl)amino] thiophene-3-carboxamide]	199	253	146	93.4	681	7.53		
CC(C)(O)C(=O)Nc1sc(S(=O)(=O)c2ccc(C(F)(F)F)cc2F)cc1C(N)=O [Compound 376, 5-[2-fluoro-4-(trifluoromethyl)phenyl] sulfonyl-2-[(2-hydroxy-2-methyl-propanoyl)amino] thiophene-3-carboxamide]	251	138	173	86.9	522	8.07		
CC(C)(O)C(=O)Nc1sc(S(=O)(=O)c2ccc(OC(F)(F)F)c(F)c2)cc1C(N)=O [Compound 377, 5-[3-fluoro-4-(trifluoromethoxy)phenyl] sulfonyl-2-[(2-hydroxy-2-methyl-propanoyl)amino] thiophene-3-carboxamide]	935	779	135	241	711	40.5		
C[C@@H](CO)C(=O)Nc1sc(S(=O)(=O)c2ccc(OC(F)(F)F)cc2)cc1C(N)=O [Compound 379, 2-[[(2S)-3-hydroxy-2-methyl-propanoyl]amino]-5-[4-(trifluoromethoxy)phenyl] sulfonyl-thiophene-3-carboxamide]	155	96.7	58.6	75.8	655	16.7		
Cc1c(S(=O)(=O)c2ccc(OC(F)(F)F)cc2)sc(NC(=O)C(C)(C)O)c1C(N)=O [Compound 437, 2-[(2-hydroxy-2-methyl-propanoyl)amino]-4-methyl-5-[4-(trifluoromethoxy)phenyl]sulfonyl-thiophene-3-carboxamide]	121	264				6.24	> 1000	> 1000

Reference: patent US9382254B2, “Compounds and pharmaceutical compositions thereof for the treatment of cystic fibrosis” (Galapagos NV, priority 2013, dated 2016)
